Assay in all cases: relative viability (nuclei count vs DMSO), 5 days (fraction); higher = more cells survive
Compound in experiment [1]: CN(C)C[C@@H]1CCn2cc(c3ccccc32)C2=C(C(=O)NC2=O)c2cn(c3ccccc23)CCO1 [Ruboxistaurin] + Cc1cc(Nc2cc(N3CCN(C)CC3)nc(Sc3ccc(NC(=O)C4CC4)cc3)n2)n[nH]1 [Tozasertib] (partner 0.1 µM)
Put shortly: (§1)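 The day after seeding in 1536-well plates, lung cancer cell lines were treated by pin tool with a single drug, or with a fixed anchor-drug dose together with five library-drug doses (not always all listed) in √10 steps. After 5 days, a combined fix-and-stain solution (final 0.05% Triton X-100, 1% formaldehyde, 1 ug/ml Hoechst) was added. Nuclei counted on 4× images gave relative viability as treated counts over vehicle counts, reported as the median of duplicate plates.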

Compound in experiment [2]: CN(C)C[C@@H]1CCn2cc(c3ccccc32)C2=C(C(=O)NC2=O)c2cn(c3ccccc23)CCO1 [Ruboxistaurin] + CC(=O)c1c(C)c2cnc(Nc3ccc(N4CCNCC4)cn3)nc2n(C2CCCC2)c1=O [Palbociclib] (partner 0.5 µM)
Put shortly: as §1

Compound in experiment [3]: CN(C)C[C@@H]1CCn2cc(c3ccccc32)C2=C(C(=O)NC2=O)c2cn(c3ccccc23)CCO1 [Ruboxistaurin] + CC(C)C[C@H](NC(=O)[C@H](Cc1ccccc1)NC(=O)c1cnccn1)B(O)O [Bortezomib] (partner 0.002 µM)
Put shortly: as §1

Compound in experiment [4]: CN(C)C[C@@H]1CCn2cc(c3ccccc32)C2=C(C(=O)NC2=O)c2cn(c3ccccc23)CCO1 [Ruboxistaurin] + Nc1nc2[nH]cc(CCc3ccc(C(=O)N[C@@H](CCC(=O)O)C(=O)O)cc3)c2c(=O)[nH]1 [Pemetrexed] (partner 0.2 µM)
Put shortly: as §1

Compound in experiment [5]: CN(C)C[C@@H]1CCn2cc(c3ccccc32)C2=C(C(=O)NC2=O)c2cn(c3ccccc23)CCO1 [Ruboxistaurin] + COc1cccc2cc(-c3nc([C@H]4CC[C@H](C(=O)O)CC4)n4ncnc(N)c34)[nH]c12 [OSI-027] (partner 0.5 µM)
Put shortly:
as §1

In the case of NCI-H661, the relative viability in experiment [1] (first compound 0.08 µM) is 0.366; in experiment [1] (first compound 0.8 µM), 0.332; in experiment [1] (first compound 2.53 µM), 0.372; in experiment [1] (first compound 8 µM), 0.344; in experiment [2] (first compound 0.08 µM), 0.424; in experiment [2] (first compound 0.8 µM) it was 0.416. For the same cell line, the relative viability turned out to be 0.437 in experiment [2] (first compound 2.53 µM); 0.46 in experiment [2] (first compound 8 µM); 0.887 in experiment [3] (first compound 0.08 µM); 0.664 in experiment [3] (first compound 0.8 µM); 0.883 in experiment [3] (first compound 2.53 µM); 0.88 in experiment [3] (first compound 8 µM). Also, the relative viability was 0.932 in experiment [4] (first compound 0.08 µM); 0.873 in experiment [4] (first compound 0.8 µM); 0.921 in experiment [4] (first compound 2.53 µM); 0.874 in experiment [4] (first compound 8 µM); 0.78 in experiment [5] (first compound 0.08 µM); 0.599 in experiment [5] (first compound 0.8 µM). Besides, the relative viability in experiment [5] (first compound 2.53 µM) turned out to be 0.695; in experiment [5] (first compound 8 µM), 0.6.
LU99A: the relative viability in experiment [1] (first compound 0.08 µM) stood at 0.256; in experiment [1] (first compound 0.8 µM), 0.205; in experiment [1] (first compound 2.53 µM) it was 0.221; in experiment [1] (first compound 8 µM), 0.229; in experiment [2] (first compound 0.08 µM), 0.473; in experiment [2] (first compound 0.8 µM) it was 0.388. In addition, the relative viability in experiment [2] (first compound 2.53 µM) was found to be 0.482; in experiment [2] (first compound 8 µM), 0.31; in experiment [3] (first compound 0.08 µM), 1.19; in experiment [3] (first compound 0.8 µM), 1.06; in experiment [3] (first compound 2.53 µM), 1.11; in experiment [3] (first compound 8 µM), 0.968. The relative viability was found to be 0.159 in experiment [4] (first compound 0.08 µM); 0.179 in experiment [4] (first compound 0.8 µM); 0.171 in experiment [4] (first compound 2.53 µM); 0.203 in experiment [4] (first compound 8 µM); 0.285 in experiment [5] (first compound 0.08 µM); 0.271 in experiment [5] (first compound 0.8 µM). The relative viability stood at 0.266 in experiment [5] (first compound 2.53 µM) and 0.258 in experiment [5] (first compound 8 µM).
Turning to NCI-H1650, the relative viability worked out at 0.435 in experiment [1] (first compound 0.08 µM); 0.301 in experiment [1] (first compound 0.8 µM); 0.433 in experiment [1] (first compound 2.53 µM); 0.3 in experiment [1] (first compound 8 µM); 0.416 in experiment [2] (first compound 0.08 µM); 0.324 in experiment [2] (first compound 0.8 µM). The relative viability in experiment [2] (first compound 2.53 µM) is 0.455; in experiment [2] (first compound 8 µM), 0.372; in experiment [3] (first compound 0.08 µM) it was 0.216; in experiment [3] (first compound 0.8 µM), 0.192; in experiment [3] (first compound 2.53 µM), 0.212; in experiment [3] (first compound 8 µM), 0.195. In addition, the relative viability in experiment [4] (first compound 0.08 µM) stood at 0.425; in experiment [4] (first compound 0.8 µM), 0.362; in experiment [4] (first compound 2.53 µM) it was 0.373; in experiment [4] (first compound 8 µM), 0.454; in experiment [5] (first compound 0.08 µM), 0.711; in experiment [5] (first compound 0.8 µM), 0.408. Also, the relative viability in experiment [5] (first compound 2.53 µM) worked out at 0.614; in experiment [5] (first compound 8 µM), 0.376.
For SW 1573, the relative viability in experiment [1] (first compound 0.08 µM) turned out to be 0.256; in experiment [1] (first compound 0.8 µM), 0.19; in experiment [1] (first compound 2.53 µM), 0.168; in experiment [1] (first compound 8 µM), 0.124; in experiment [2] (first compound 0.08 µM), 0.433; in experiment [2] (first compound 0.8 µM), 0.371. Further, the relative viability in experiment [2] (first compound 2.53 µM) amounted to 0.354; in experiment [2] (first compound 8 µM), 0.523; in experiment [3] (first compound 0.08 µM), 0.892; in experiment [3] (first compound 0.8 µM), 0.973; in experiment [3] (first compound 2.53 µM) it was 0.983; in experiment [3] (first compound 8 µM) it was 1.05. The relative viability in experiment [4] (first compound 0.08 µM) was 0.923; in experiment [4] (first compound 0.8 µM), 0.803; in experiment [4] (first compound 2.53 µM) it was 0.795; in experiment [4] (first compound 8 µM), 0.704; in experiment [5] (first compound 0.08 µM) it was 0.729; in experiment [5] (first compound 0.8 µM), 0.459. For the same cell line, the relative viability in experiment [5] (first compound 2.53 µM) is 0.541; in experiment [5] (first compound 8 µM), 0.494.
As for HOP-62, the relative viability in experiment [1] (first compound 0.08 µM) amounted to 0.362; in experiment [1] (first compound 0.8 µM), 0.299; in experiment [1] (first compound 2.53 µM), 0.352; in experiment [1] (first compound 8 µM), 0.424; in experiment [2] (first compound 0.08 µM) it was 0.516; in experiment [2] (first compound 0.8 µM) it was 0.462. Moreover, the relative viability in experiment [2] (first compound 2.53 µM) was found to be 0.471; in experiment [2] (first compound 8 µM), 0.458; in experiment [3] (first compound 0.08 µM), 0.736; in experiment [3] (first compound 0.8 µM) it was 0.536; in experiment [3] (first compound 2.53 µM), 0.734; in experiment [3] (first compound 8 µM) it was 0.642. The relative viability was determined as 0.299 in experiment [4] (first compound 0.08 µM); 0.241 in experiment [4] (first compound 0.8 µM); 0.298 in experiment [4] (first compound 2.53 µM); 0.31 in experiment [4] (first compound 8 µM); 0.884 in experiment [5] (first compound 0.08 µM); 0.783 in experiment [5] (first compound 0.8 µM). For the same cell line, the relative viability in experiment [5] (first compound 2.53 µM) was determined as 0.826; in experiment [5] (first compound 8 µM), 0.753.
Turning to UMC-11, the relative viability in experiment [1] (first compound 0.08 µM) is 0.203; in experiment [1] (first compound 0.8 µM) it was 0.211; in experiment [1] (first compound 2.53 µM), 0.248; in experiment [1] (first compound 8 µM) it was 0.177; in experiment [2] (first compound 0.08 µM), 0.327; in experiment [2] (first compound 0.8 µM), 0.388. In addition, the relative viability in experiment [2] (first compound 2.53 µM) stood at 0.289; in experiment [2] (first compound 8 µM) it was 0.338; in experiment [3] (first compound 0.08 µM) it was 0.725; in experiment [3] (first compound 0.8 µM), 0.667; in experiment [3] (first compound 2.53 µM) it was 0.691; in experiment [3] (first compound 8 µM), 0.564. Also, the relative viability turned out to be 0.823 in experiment [4] (first compound 0.08 µM); 0.721 in experiment [4] (first compound 0.8 µM); 0.688 in experiment [4] (first compound 2.53 µM); 0.606 in experiment [4] (first compound 8 µM); 0.437 in experiment [5] (first compound 0.08 µM); 0.403 in experiment [5] (first compound 0.8 µM). Moreover, the relative viability in experiment [5] (first compound 2.53 µM) was 0.37; in experiment [5] (first compound 8 µM), 0.301.
As to LCLC-103H, the relative viability in experiment [1] (first compound 0.08 µM) was found to be 0.52; in experiment [1] (first compound 0.8 µM), 0.326; in experiment [1] (first compound 2.53 µM) it was 0.519; in experiment [1] (first compound 8 µM), 0.472; in experiment [2] (first compound 0.08 µM), 0.446; in experiment [2] (first compound 0.8 µM), 0.49. In addition, the relative viability in experiment [2] (first compound 2.53 µM) came to 0.446; in experiment [2] (first compound 8 µM), 0.451; in experiment [3] (first compound 0.08 µM), 1.19; in experiment [3] (first compound 0.8 µM), 1.12; in experiment [3] (first compound 2.53 µM), 0.968; in experiment [3] (first compound 8 µM) it was 1.01. The relative viability was 0.47 in experiment [4] (first compound 0.08 µM); 0.479 in experiment [4] (first compound 0.8 µM); 0.434 in experiment [4] (first compound 2.53 µM); 0.608 in experiment [4] (first compound 8 µM); 0.46 in experiment [5] (first compound 0.08 µM); 0.384 in experiment [5] (first compound 0.8 µM). Further, the relative viability was 0.407 in experiment [5] (first compound 2.53 µM) and 0.357 in experiment [5] (first compound 8 µM).
